The results in this text go back to article PMC3950631, “L-Phenylalanine Transport in Saccharomyces cerevisiae: Participation of GAP1, BAP2, and AGP1” (Journal of Amino Acids, 2014).

Each structure is given as a SMILES string. Where two headings read alike, the source gives them in different places.

What all share (assay): inhibition of […] L-[…]-phenylalanine uptake into intact yeast cells
What all share (type): cell-based

Assay [1] deals with T1, Bap2p (Saccharomyces cerevisiae, UniProt P38084).
T1 construct: gene BAP2; native chromosomal permease in intact yeast cells, full length, plasma membrane; assigned by gene disruption
T1 sequence (P38084 1-609): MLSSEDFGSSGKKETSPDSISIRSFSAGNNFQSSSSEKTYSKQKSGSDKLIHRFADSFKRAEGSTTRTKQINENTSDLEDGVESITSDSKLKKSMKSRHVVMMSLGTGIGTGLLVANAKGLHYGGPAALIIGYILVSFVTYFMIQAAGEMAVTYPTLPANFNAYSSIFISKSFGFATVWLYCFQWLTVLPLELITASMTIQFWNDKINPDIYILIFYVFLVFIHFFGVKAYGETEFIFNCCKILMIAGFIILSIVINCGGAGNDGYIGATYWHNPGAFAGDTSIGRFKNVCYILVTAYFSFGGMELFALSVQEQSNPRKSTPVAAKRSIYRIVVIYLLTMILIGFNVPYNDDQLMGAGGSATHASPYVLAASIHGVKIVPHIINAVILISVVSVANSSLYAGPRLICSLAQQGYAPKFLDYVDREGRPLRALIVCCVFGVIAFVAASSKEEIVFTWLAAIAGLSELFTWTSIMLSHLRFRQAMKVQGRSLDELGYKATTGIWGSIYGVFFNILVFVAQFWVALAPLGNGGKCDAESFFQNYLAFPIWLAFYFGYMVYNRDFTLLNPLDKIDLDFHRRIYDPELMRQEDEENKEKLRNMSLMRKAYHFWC
As to conditions: read-out: Percentage inhibition / Y294Δagp1.

Assay [2] deals with T2, Gap1p (Saccharomyces cerevisiae, UniProt P19145).
T2 construct: gene GAP1; native chromosomal permease in intact yeast cells, full length, plasma membrane; assigned by gene disruption and growth medium
T2 sequence (P19145 1-602): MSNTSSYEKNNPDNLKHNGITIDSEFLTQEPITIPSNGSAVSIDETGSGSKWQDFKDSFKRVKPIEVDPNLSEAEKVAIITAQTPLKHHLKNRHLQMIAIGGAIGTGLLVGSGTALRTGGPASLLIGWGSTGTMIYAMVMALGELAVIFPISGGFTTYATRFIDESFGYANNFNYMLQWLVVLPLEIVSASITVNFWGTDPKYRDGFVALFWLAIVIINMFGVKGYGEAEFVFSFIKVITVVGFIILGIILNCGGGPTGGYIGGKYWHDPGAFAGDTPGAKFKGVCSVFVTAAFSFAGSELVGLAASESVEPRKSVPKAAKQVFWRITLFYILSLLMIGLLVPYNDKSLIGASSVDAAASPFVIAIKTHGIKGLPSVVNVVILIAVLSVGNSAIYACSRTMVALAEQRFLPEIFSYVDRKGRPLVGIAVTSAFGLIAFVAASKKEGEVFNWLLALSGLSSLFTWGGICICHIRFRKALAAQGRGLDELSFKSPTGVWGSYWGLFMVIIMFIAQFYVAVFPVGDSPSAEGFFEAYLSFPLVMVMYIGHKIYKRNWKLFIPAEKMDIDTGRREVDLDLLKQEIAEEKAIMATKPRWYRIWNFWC

Assay [3] concerns the target T3, Agp1p (Saccharomyces cerevisiae, UniProt P25376).
T3 construct: gene AGP1; native chromosomal permease in intact yeast cells, full length, plasma membrane; assigned by gene disruption
T3 sequence (P25376 1-633): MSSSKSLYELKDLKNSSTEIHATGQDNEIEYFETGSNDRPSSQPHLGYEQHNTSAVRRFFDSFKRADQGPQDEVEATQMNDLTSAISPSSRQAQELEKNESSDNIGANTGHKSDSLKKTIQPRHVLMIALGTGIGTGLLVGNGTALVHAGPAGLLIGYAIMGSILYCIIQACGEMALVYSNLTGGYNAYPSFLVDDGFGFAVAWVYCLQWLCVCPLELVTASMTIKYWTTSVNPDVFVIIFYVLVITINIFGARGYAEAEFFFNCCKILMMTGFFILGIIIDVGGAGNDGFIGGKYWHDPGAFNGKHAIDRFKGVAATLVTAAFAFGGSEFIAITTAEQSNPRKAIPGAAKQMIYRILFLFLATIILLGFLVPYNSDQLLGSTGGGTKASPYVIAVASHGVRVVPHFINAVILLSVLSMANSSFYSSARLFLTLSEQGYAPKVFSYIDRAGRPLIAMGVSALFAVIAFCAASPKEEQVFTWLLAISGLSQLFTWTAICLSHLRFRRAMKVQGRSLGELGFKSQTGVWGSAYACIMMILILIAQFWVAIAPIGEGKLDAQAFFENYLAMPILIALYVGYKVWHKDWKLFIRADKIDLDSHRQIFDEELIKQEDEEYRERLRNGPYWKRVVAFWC

The mark [4] stands for this setting: read-out: Percentage inhibition / Y294Δbap2.
[5] abbreviates: read-out: Percentage inhibition / Y294Δbap2Δgap1 / MP.

`CC(CC(N)C(=O)O)C(F)(F)F` (racemic) [DL-trifluoroleucine]: the inhibition at 200 µM in assay [1] stood at 48%; in assay [2] (setting [4]), 42%. On to `NC(Cc1cccs1)C(=O)O` (racemic) [β-2-thienylalanine], for which, in assay [1], the inhibition at 200 µM came to 67%. Consider `NC(=O)C[C@H](N)C(=O)O` [Asparagine], for which the values for the inhibition at 200 µM in assay [3] (setting [5]) and in assay [2] (setting [4]) were 48% and 37%, respectively. Consider `NC(=O)NCCC[C@H](N)C(=O)O` [Citrulline], for which the inhibition at 200 µM in assay [2] (setting [4]) stood at 40%. On to `CC[C@H](C)[C@H](N)C(=O)O` [Isoleucine], for which, in assay [2] (read-out: Percentage inhibition / Y294), the inhibition at 200 µM is 71%. On to `CC(C)C[C@H](N)C(=O)O` [Leucine], for which the inhibition at 200 µM in assay [1] was 72%; in assay [3] (setting [5]), 34%; in assay [2] (setting [4]), 75%. In the case of `N[C@@H](Cc1c[nH]c2ccccc12)C(=O)O` [Tryptophan], the inhibition at 200 µM in assay [3] (read-out: Percentage inhibition / Y294Δgap1 / MA) was found to be 18%; in assay [2] (setting [4]) it was 86%. `N[C@@H](Cc1ccc(O)cc1)C(=O)O` [Tyrosine]: the inhibition at 200 µM in assay [2] (setting [4]) came out at 81%.

Consider `CC(C)[C@H](N)C(=O)O` [Valine], for which the inhibition at 200 µM in assay [2] (setting [4]) is 71%.
